Measured values reported in ChEMBL document CHEMBL3217615, “Novel 3,5-bis(arylidiene)-4-piperidone based monocarbonyl analogs of curcumin: anticancer activity evaluation and mode of action study” (2014).

Experiments:
Type in all cases: functional
[1] = system: MCF7; test: Growth inhibition of human MCF7 cells assessed as cell growth at 10^-7 M after 48 hrs by sulforhodamine B assay; conditions: MCF7, 48 h, read-out: Activity
[2] = system: ACHN; test: Growth inhibition of human ACHN cells after 48 hrs by sulforhodamine B assay; conditions: for CC50: read-out: LC50 (the source's name)
[3] = system: CAKI-1; test: Growth inhibition of human CAKI-1 cells assessed as cell growth at 10^-4 M after 48 hrs by sulforhodamine B assay; conditions: CAKI-1, 48 h, read-out: Activity
[4] = Growth inhibition of human UACC62 cells assessed as cell growth at 10^-4 M after 48 hrs by sulforhodamine B assay; conditions: UACC-62, 48 h, read-out: Activity
[5] = Growth inhibition of human OVCAR3 cells assessed as cell growth at 10^-7 M after 48 hrs by sulforhodamine B assay; conditions: OVCAR-3, 48 h, read-out: Activity
[6] = system: MCF7; test: Growth inhibition of human MCF7 cells assessed as cell growth at 10^-6 M after 48 hrs by sulforhodamine B assay; conditions: MCF7, 48 h, read-out: Activity
[7] = system: COLO 205; test: Growth inhibition of human COLO205 cells assessed as cell growth at 10^-8 M after 48 hrs by sulforhodamine B assay; conditions: COLO 205, 48 h; for growth at 0.01 µM: read-out: Activity; for TGI: read-out: pTGI (converted)
[8] = system: NCI-H226; test: Growth inhibition of human NCI-H226 cells assessed as cell growth at 10^-8 M after 48 hrs by sulforhodamine B assay; conditions: NCI-H226, 48 h; for growth at 0.01 µM: read-out: Activity; for TGI: read-out: pTGI (converted)
[9] = system: NCI-H522; test: Growth inhibition of human NCI-H522 cells assessed as cell growth at 10^-6 M after 48 hrs by sulforhodamine B assay; conditions: NCI-H522, 48 h, read-out: Activity
[10] = system: COLO 205; test: Growth inhibition of human COLO205 cells assessed as cell growth at 10^-7 M after 48 hrs by sulforhodamine B assay; conditions: COLO 205, 48 h, read-out: Activity
[11] = Growth inhibition of human SF295 cells assessed as cell growth at 10^-6 M after 48 hrs by sulforhodamine B assay; conditions: SF-295, 48 h, read-out: Activity
[12] = Growth inhibition of human HCC2998 cells after 48 hrs by sulforhodamine B assay; conditions: HCC 2998, 48 h; for CC50: read-out: LC50 (the source's name)
[13] = system: SR; test: Growth inhibition of human SR cells assessed as cell growth at 10^-8 M after 48 hrs by sulforhodamine B assay; conditions: for growth at 0.01 µM: read-out: Activity; for TGI: read-out: pTGI (converted)
[14] = system: DU-145; test: Growth inhibition of human DU145 cells assessed as cell growth at 10^-7 M after 48 hrs by sulforhodamine B assay; conditions: DU-145, 48 h, read-out: Activity
[15] = system: A549; test: Growth inhibition of human A549/ATCC cells assessed as cell growth at 10^-4 M after 48 hrs by sulforhodamine B assay; conditions: A549, 48 h, read-out: Activity
[16] = system: HT-29; test: Growth inhibition of human HT-29 cells after 48 hrs by sulforhodamine B assay; conditions: HT-29, 48 h; for CC50: read-out: LC50 (the source's name)
[17] = system: CAKI-1; test: Growth inhibition of human CAKI-1 cells assessed as cell growth at 10^-7 M after 48 hrs by sulforhodamine B assay; conditions: CAKI-1, 48 h, read-out: Activity
[18] = Growth inhibition of human SF295 cells after 48 hrs by sulforhodamine B assay; conditions: SF-295, 48 h; for CC50: read-out: LC50 (the source's name)
[19] = system: SK-MEL-5; test: Growth inhibition of human SK-MEL-5 cells after 48 hrs by sulforhodamine B assay; conditions: SK-MEL-5, 48 h; for CC50: read-out: LC50 (the source's name)
[20] = Growth inhibition of human OVCAR3 cells after 48 hrs by sulforhodamine B assay; conditions: OVCAR-3, 48 h; for CC50: read-out: LC50 (the source's name)
[21] = Growth inhibition of human OVCAR4 cells assessed as cell growth at 10^-6 M after 48 hrs by sulforhodamine B assay; conditions: OVCAR-4, 48 h, read-out: Activity
[22] = system: NCI-H460; test: Growth inhibition of human NCI-H460 cells after 48 hrs by sulforhodamine B assay; conditions: NCI-H460, 48 h; for CC50: read-out: LC50 (the source's name)
[23] = system: K562; test: Growth inhibition of human K562 cells assessed as cell growth at 10^-6 M after 48 hrs by sulforhodamine B assay; conditions: K562, 48 h, read-out: Activity
[24] = system: SK-MEL-2; test: Growth inhibition of human SK-MEL-2 cells after 48 hrs by sulforhodamine B assay; conditions: SK-MEL-2, 48 h; for CC50: read-out: LC50 (the source's name)
[25] = system: NCI-H23; test: Growth inhibition of human NCI-H23 cells assessed as cell growth at 10^-6 M after 48 hrs by sulforhodamine B assay; conditions: NCI-H23, 48 h, read-out: Activity
[26] = Growth inhibition of human HCT15 cells assessed as cell growth at 10^-4 M after 48 hrs by sulforhodamine B assay; conditions: HCT-15, 48 h, read-out: Activity
[27] = Growth inhibition of human LOXIMVI cells after 48 hrs by sulforhodamine B assay; conditions: LOX IMVI
[28] = Growth inhibition of human UACC257 cells assessed as cell growth at 10^-5 M after 48 hrs by sulforhodamine B assay; conditions: UACC-257, 48 h, read-out: Activity
[29] = Growth inhibition of human RXF393 cells assessed as cell growth at 10^-6 M after 48 hrs by sulforhodamine B assay; conditions: RXF 393, 48 h, read-out: Activity
[30] = system: SK-OV-3; test: Growth inhibition of human SKOV3 cells assessed as cell growth at 10^-8 M after 48 hrs by sulforhodamine B assay; conditions: SK-OV-3, 48 h; for growth at 0.01 µM: read-out: Activity; for TGI: read-out: pTGI (converted)
[31] = system: U-251; test: Growth inhibition of human U251 cells assessed as cell growth at 10^-4 M after 48 hrs by sulforhodamine B assay; conditions: U-251, 48 h, read-out: Activity
[32] = Growth inhibition of human SF295 cells assessed as cell growth at 10^-5 M after 48 hrs by sulforhodamine B assay; conditions: SF-295, 48 h, read-out: Activity
[33] = system: A498; test: Growth inhibition of human A498 cells assessed as cell growth at 10^-7 M after 48 hrs by sulforhodamine B assay; conditions: A498, 48 h, read-out: Activity
[34] = system: 786-0; test: Growth inhibition of human 786-0 cells assessed as cell growth at 10^-6 M after 48 hrs by sulforhodamine B assay; conditions: 786-0, 48 h, read-out: Activity

Cc1ccc(S(=O)(=O)N2C/C(=C\c3cc(F)cc(F)c3)C(=O)/C(=C/c3cc(F)cc(F)c3)C2)cc1
growth at 0.1 µM [1]: 62% | GI50 [2]: 246 nM | TGI [2]: 622 nM | CC50 [2]: 2390 nM | growth at 100 µM [3]: -57% | growth at 100 µM [4]: -98% | growth at 0.1 µM [5]: 112% | growth at 1 µM [6]: 12% | GI50 [7]: 617 nM | LC50 [7]: 6.17 µM | growth at 0.01 µM [7]: 107% | TGI [7]: 2090 nM | GI50 [8]: 8.71 µM | LC50 [8]: > 100 µM | growth at 0.01 µM [8]: 97% | TGI [8]: 39.8 µM | growth at 1 µM [9]: -2% | growth at 0.1 µM [10]: 106% | growth at 1 µM [11]: 29% | GI50 [12]: 602 nM | TGI [12]: 1910 nM | CC50 [12]: 4.85 µM | GI50 [13]: 34.7 nM | LC50 [13]: > 100 µM | growth at 0.01 µM [13]: 93% | TGI [13]: 251 nM | growth at 0.1 µM [14]: 111% | growth at 100 µM [15]: -34% | GI50 [16]: 229 nM | TGI [16]: 638 nM | CC50 [16]: 3.19 µM | growth at 0.1 µM [17]: 94% | GI50 [18]: 466 nM | TGI [18]: 2.5 µM | CC50 [18]: 15.7 µM | GI50 [19]: 286 nM | TGI [19]: 1080 nM | CC50 [19]: 3.6 µM | GI50 [20]: 441 nM | TGI [20]: 1440 nM | CC50 [20]: 4.56 µM | growth at 1 µM [21]: 26% | GI50 [22]: 828 nM | TGI [22]: 2870 nM | CC50 [22]: 9.22 µM | growth at 1 µM [23]: 3% | GI50 [24]: 1.97 µM | TGI [24]: 4.66 µM | CC50 [24]: 14.8 µM | growth at 1 µM [25]: 77% | growth at 100 µM [26]: -65% | GI50 [27]: 175 nM | TGI [27]: 339 nM | CC50 ([27]; read-out: LC50 (the source's name)): 656 nM | growth at 10 µM [28]: -57% | growth at 1 µM [29]: 44% | GI50 [30]: 1.82 µM | LC50 [30]: 37.2 µM | growth at 0.01 µM [30]: 103% | TGI [30]: 5.62 µM | growth at 100 µM [31]: -96% | growth at 10 µM [32]: -44% | growth at 0.1 µM [33]: 93% | growth at 1 µM [34]: 34%

O=C1/C(=C/c2ccc(Cl)cc2Cl)CN(S(=O)(=O)c2ccccc2)C/C1=C\c1ccc(Cl)cc1Cl
growth at 0.1 µM [1]: 84% | GI50 [2]: 874 nM | TGI [2]: 4560 nM | CC50 [2]: > 100000 nM | growth at 100 µM [3]: -11% | growth at 100 µM [4]: -71% | growth at 0.1 µM [5]: 108% | growth at 1 µM [6]: 14% | GI50 [7]: 427 nM | LC50 [7]: > 100 µM | growth at 0.01 µM [7]: 106% | TGI [7]: 2000 nM | GI50 [8]: 1.05 µM | LC50 [8]: 7.94 µM | growth at 0.01 µM [8]: 92% | TGI [8]: 2.88 µM | growth at 1 µM [9]: 47% | growth at 0.1 µM [10]: 107% | growth at 1 µM [11]: 13% | GI50 [12]: 383 nM | TGI [12]: 1360 nM | CC50 [12]: 4.54 µM | GI50 [13]: 186 nM | LC50 [13]: > 100 µM | growth at 0.01 µM [13]: 93% | TGI [13]: 871 nM | growth at 0.1 µM [14]: 110% | growth at 100 µM [15]: -33% | GI50 [16]: 293 nM | TGI [16]: 843 nM | CC50 [16]: > 100 µM | growth at 0.1 µM [17]: 92% | GI50 [18]: 345 nM | TGI [18]: 6.67 µM | CC50 [18]: > 100 µM | TGI [19]: > 100000 nM | CC50 [19]: > 100 µM | GI50 [20]: 310 nM | TGI [20]: 818 nM | CC50 [20]: 5.01 µM | growth at 1 µM [21]: 10% | GI50 [22]: 208 nM | TGI [22]: 447 nM | CC50 [22]: 0.959 µM | growth at 1 µM [23]: 8% | GI50 [24]: 6.01 µM | TGI [24]: > 100 µM | CC50 [24]: > 100 µM | growth at 1 µM [25]: 18% | growth at 100 µM [26]: -36% | GI50 [27]: 203 nM | TGI [27]: 508 nM | growth at 10 µM [28]: 27% | growth at 1 µM [29]: 54% | GI50 [30]: 7.94 µM | LC50 [30]: > 100 µM | growth at 0.01 µM [30]: 109% | TGI [30]: > 100 µM | growth at 100 µM [31]: -63% | growth at 10 µM [32]: -3% | growth at 0.1 µM [33]: 61% | growth at 1 µM [34]: -37%
